Laboratory results as given in the Deep4Chem optical property database.
Several values for one entry are separate records, joined by “and”; a condition that tells them apart may be missing. Identical values can stand only once. Each block holds one compound with its values, some of them ahead of it.

Assay: photoluminescence quantum yield (fraction); solvent given as SMILES

photoluminescence quantum yield (in CCCCC(CC)n1c2ccc(-n3c4ccccc4c4ccccc43)cc2c2cc(-n3c4ccccc4c4ccccc43)ccc21): 0.239
photoluminescence quantum yield (in c1cc(-n2c3ccccc3c3ccccc32)cc(-n2c3ccccc3c3ccccc32)c1): 0.365
SMILES: CC1(C)c2ccccc2N(c2cccc(S(=O)(=O)c3cccc(N4c5ccccc5C(C)(C)c5ccccc54)c3)c2)c2ccccc21

photoluminescence quantum yield (in CC1CCCO1): 0.75
SMILES: CC1=CC(/C=C/c2ccc(C)cc2)=[N+]2C1=C(c1ccccc1)c1c(C)cc(/C=C/c3ccc(C)cc3)n1[B-]2(F)F

photoluminescence quantum yield (in ClCCl): 0.43
SMILES: CC(=O)c1ccc(-c2cccc3ncc(-c4ccccc4)n23)cc1

photoluminescence quantum yield (in ClCCl): 0.64
SMILES: Cc1cc(-c2ccc3ccccc3c2)cc(C)[o+]1

photoluminescence quantum yield (in CC#N): 0.4
photoluminescence quantum yield (in CCO): 0.66
photoluminescence quantum yield (in CN(C)C=O): 0.42
photoluminescence quantum yield (in CO): 0.7
photoluminescence quantum yield (in O): 0.36 and 0.31
SMILES: CCN(CC)c1ccc2c(-c3ccccc3C(=O)[O-])c3ccc(=[N+](CC)CC)cc-3oc2c1

photoluminescence quantum yield (in C1CCCCC1): 0.0085
SMILES: C[Si](C)(C)C#Cc1ccc(C#Cc2cnc(C#Cc3ccccc3)nc2)cc1

photoluminescence quantum yield (in ClCCl): 1
SMILES: FC(F)(F)c1ccc(/C=C/c2nc(/C=C/c3ccc(N(c4ccccc4)c4ccccc4)cc3)cc(/C=C/c3ccc(N(c4ccccc4)c4ccccc4)cc3)n2)cc1

photoluminescence quantum yield (in CC#N): 0.1
SMILES: COC(=O)c1c(NC(C)(C)C)oc(-c2ccccc2)c1C(=O)OC

photoluminescence quantum yield (in ClC(Cl)Cl): 0.92
SMILES: N#CC1=CC=CC(C#N)=P1(c1ccccc1)c1ccccc1

photoluminescence quantum yield (in CCO): 0.0246
photoluminescence quantum yield (in ClCCl): 0.0632
photoluminescence quantum yield (in O): 0.02
SMILES: O=Cc1ccc(-c2ccc(O)c(-c3nc4ccccc4s3)c2)o1

photoluminescence quantum yield (in C1CCOC1): 0.96
SMILES: c1ccc(-c2cnc3nn4ccccc4c3n2)cc1

photoluminescence quantum yield (in C1CCCCC1): 0.024
SMILES: c1cc2ccc3ccc4ccc5ccc1c1c2c3c4c51

photoluminescence quantum yield (in C1CCCCC1): 0.04
photoluminescence quantum yield (in CO): 0.007
SMILES: C(=C\c1nc2ccccc2s1)/c1ccccc1

photoluminescence quantum yield (in CCCCCCC): 0.00088
SMILES: c1ccc2c3c(ccc2c1)-c1c2ccccc2cc2cccc-3c12

photoluminescence quantum yield (in ClCCl): 0.51
SMILES: CCCCCCOc1ccc2c(c1)-c1cc3c(cc1[Si]2(C)C)-c1ccccc1[Si]3(C)C

photoluminescence quantum yield (in CCC(C)C): 0.27
photoluminescence quantum yield (in ClCCl): 0.16
SMILES: c1csc(-c2ccc(-c3ccc(-c4cccs4)s3)s2)c1

photoluminescence quantum yield (in C1CCCCC1): 0.61
SMILES: B1C=Cc2ccc3ccccc3c2N1

photoluminescence quantum yield (in ClCCl): 0.739
SMILES: CC1=C(c2ccccc2)C(C)=[N+]2C1=C(c1c(-c3ccccn3)nc3ccccn13)c1c(C)cc(C)n1[B-]2(F)F

photoluminescence quantum yield (in ClCCl): 0.15
SMILES: CC(C)(C)c1ccc(-c2c3c(c(-c4ccc(C(C)(C)C)cc4)c4cc5ccccc5cc24)Cc2c(c(-c4ccc(C(C)(C)C)cc4)c4cc5ccccc5cc4c2-c2ccc(C(C)(C)C)cc2)C3)cc1

photoluminescence quantum yield (in C1CCCCC1): 0.33
photoluminescence quantum yield (in C1CCOC1): 0.22
photoluminescence quantum yield (in C1COCCO1): 0.24
photoluminescence quantum yield (in CC#N): 0.21
photoluminescence quantum yield (in CCCCCC): 0.32
photoluminescence quantum yield (in CO): 0.17
photoluminescence quantum yield (in ClC(Cl)Cl): 0.24
SMILES: F[B-]1(F)n2c(-c3ccccc3)cnc2-c2cccc[n+]21

photoluminescence quantum yield (in O): 0.011
SMILES: [NH3+]c1cc([NH3+])cc(-c2nc3ccccc3s2)c1

photoluminescence quantum yield (in CC#N): 0.38
SMILES: CC1=C2C3=C(CCc4ccccc43)C(C)=[N+]2[B-](F)(F)n2c(C)c3c(c21)-c1ccccc1CC3

photoluminescence quantum yield (in CC#N): 0.7
SMILES: CC1=CC(C)=[N+]2C1=C(c1ccccc1)c1c(C)cc(/C=C/c3ccccc3)n1[B-]2(F)F

photoluminescence quantum yield (in C1CCOC1): 0.0013
SMILES: CCCCCCOc1cc(C=C2c3ccccc3-c3ccccc32)c(OCCCCCC)cc1C=C1c2ccccc2C=Cc2ccccc21

photoluminescence quantum yield (in CCO): 0.12
photoluminescence quantum yield (in CO): 0.06
photoluminescence quantum yield (in CS(C)=O): 0.24
SMILES: CN1/C(=C/C=C(/C=C/c2sc3ccccc3[n+]2C)c2cccc(C(F)(F)F)c2)Sc2ccccc21

photoluminescence quantum yield (in C1CCOC1): 0.586
SMILES: CCCCC1(CCCC)c2cc(C#Cc3ccc(/C=C(\C)c4ccccc4)cc3)ccc2-c2ccc(C#Cc3ccc(/C=C(\C)c4ccccc4)cc3)cc21

photoluminescence quantum yield (in C1COCCO1): 0.85
SMILES: CCC(C)(C)c1ccc(-c2ccc(-c3ccc(C(C)(C)CC)cc3)cc2)cc1

photoluminescence quantum yield (in ClCCl): 0.9
SMILES: FC(F)(F)c1ccc(B2c3ccccc3Nc3ccccc32)c(C(F)(F)F)c1

photoluminescence quantum yield (in CCCCCC): 0.543
SMILES: CCc1c(C(=O)OC)c(C(=O)OC)c2ccc(-c3ccccc3)nn12

photoluminescence quantum yield (in ClCCl): 0.12
SMILES: CC(=O)c1ccc(-c2cc3c(ccc4sccc43)s2)cc1

photoluminescence quantum yield (in C1CCOC1): 0.17
SMILES: F[Si](c1ccccc1)(c1c2ccccc2cc2ccccc12)c1c2ccccc2cc2ccccc12

photoluminescence quantum yield (in ClCCl): 0.56
SMILES: CCc1cccc(CC)c1-c1c2ccccc2c(-c2c(CC)cccc2CC)c2cc3ccccc3cc12

photoluminescence quantum yield (in ClCCl): 0.03
SMILES: CC(C)(C)NC(=O)c1cccc2ccc3c4ccccc4c4ccccc4c3c12

photoluminescence quantum yield (in C1CCOC1): 0.486
SMILES: CCCCCOc1cc2oc(=O)c3c4ccc(N)cc4c4ccc5cccc6c(c1)c2c3c4c56

Further lines, the compound ahead of its results:

SMILES: CCn1c2ccccc2c2cc(/C=C/c3cc(/C=C/c4ccc5c(c4)c4ccccc4n5CC)[n+](CCCS(=O)(=O)[O-])c(/C=C/c4ccc5c(c4)c4ccccc4n5CC)c3)ccc21
photoluminescence quantum yield (in C1CCOC1): 0.12
photoluminescence quantum yield (in CC#N): 0.05
photoluminescence quantum yield (in CC(C)=O): 0.05
photoluminescence quantum yield (in Cc1ccccc1): 0.09

SMILES: CCN(CC)c1ccc(-n2cccc2)cc1
photoluminescence quantum yield (in CC#N): 0.13
photoluminescence quantum yield (in CCCCCC): 0.11

SMILES: N#CC1=c2cc3c4c(c2Oc2c1cc1c5c2CCCN5CCC1)CCC[N+]=4CCC3
photoluminescence quantum yield (in CCO): 0.25

SMILES: COC(=O)/C(C#N)=c1\s/c(=c2/s/c(=C(/C#N)C(=O)OC)c3cc(-c4ccc(OC)cc4)sc23)c2sc(-c3ccc(OC)cc3)cc12
photoluminescence quantum yield (in Cc1ccccc1): 0.424

SMILES: CCCC1(CCC)c2cc(-c3ccc(C(C)(C)C)cc3)ccc2-c2ccc(-c3ccc4c(c3)C(CCC)(CCC)c3cc(-c5ccc6c(c5)C(CCC)(CCC)c5cc(-c7ccc(C(C)(C)C)cc7)ccc5-6)ccc3-4)cc21
photoluminescence quantum yield (in C1CCCCC1): 0.9

SMILES: CC1=CC(C)=[N+]2C1=Cc1c(C)cc(C)n1[B-]2(F)F
photoluminescence quantum yield (in CCCCCC): 0.96
photoluminescence quantum yield (in CO): 0.99
photoluminescence quantum yield (in ClCCl): 0.92

SMILES: C(#Cc1ccc2ncsc2c1)c1ccc(N(c2ccccc2)c2ccccc2)cc1
photoluminescence quantum yield (in Cc1ccccc1): 0.23

SMILES: N#Cc1c(-n2c3ccccc3c3ccccc32)c(-n2c3ccccc3c3ccccc32)c(C#N)c(-n2c3ccccc3c3ccccc32)c1-n1c2ccccc2c2ccccc21
photoluminescence quantum yield (in Cc1ccccc1): 0.716 and 0.72

SMILES: CN(C)c1ccc2nc3c(cc2c1)c(-c1ccccc1)nn3-c1ccccc1
photoluminescence quantum yield (in C1CCCCC1): 0.84
photoluminescence quantum yield (in C1CCOC1): 0.62
photoluminescence quantum yield (in CC#N): 0.57
photoluminescence quantum yield (in CC(C)=O): 0.58
photoluminescence quantum yield (in CCCCCl): 0.64
photoluminescence quantum yield (in CCCCOCCCC): 0.77
photoluminescence quantum yield (in CN(C)C=O): 0.46

SMILES: CCCCC1C(=O)c2cc(Oc3ccc(C(C)(C)C)cc3)c3c4c(Oc5ccc(C(C)(C)C)cc5)cc5c6c(cc(Oc7ccc(C(C)(C)C)cc7)c(c7c(Oc8ccc(C(C)(C)C)cc8)cc(c2c37)C1=O)c64)C1=C(C5=O)c2ccc3ccccc3[n+]2[B-](F)(F)O1 (stereo not drawn)
photoluminescence quantum yield (in ClCCl): 0.5

SMILES: CC1=N/C(=C\c2cc(N(C)C)ccc2C#N)C(=O)N1C
photoluminescence quantum yield (in C1CCOC1): 0.19
photoluminescence quantum yield (in CC#N): 0.07
photoluminescence quantum yield (in CCCCCC): 0.6

SMILES: CC1(C)c2ccccc2N(c2ccc(-c3nnc(-c4ccc(N5c6ccccc6C(C)(C)c6ccccc65)cc4)o3)cc2)c2ccccc21
photoluminescence quantum yield (in O=P(c1ccccc1)(c1ccccc1)c1ccccc1Oc1ccccc1P(=O)(c1ccccc1)c1ccccc1): 0.62

SMILES: CCn1c2cc(C(C)(C)C)ccc2c2c3nsnc3c3c4ccc(C(C)(C)C)cc4n(CC)c3c21
photoluminescence quantum yield (in CN(C)C=O): 0.07
photoluminescence quantum yield (in Cc1ccccc1): 0.08
photoluminescence quantum yield (in ClCCl): 0.07

SMILES: c1ccc(-c2nc(-c3ccccc3)nc(-c3cc(-n4c5ccccc5c5ncccc54)cc(-n4c5ccccc5c5ncccc54)c3)n2)cc1
photoluminescence quantum yield (in O=P(c1ccccc1)(c1ccccc1)c1ccc2oc3ccc(P(=O)(c4ccccc4)c4ccccc4)cc3c2c1): 0.21

SMILES: C(=C\c1ccccn1)/c1ccc(N(c2ccc(/C=C/c3ccccn3)cc2)c2ccc(-c3nc4ccccc4nc3-c3ccc(N(c4ccc(/C=C/c5ccccn5)cc4)c4ccc(/C=C/c5ccccn5)cc4)cc3)cc2)cc1
photoluminescence quantum yield (in C1CCOC1): 0.55

SMILES: CCn1c(-c2ccc(-c3ccc4c(c3)C(C)(C)c3ccccc3-4)cc2)c(-c2ccc3ccccc3c2)c(-c2ccc3ccccc3c2)c1-c1ccc(-c2ccc3c(c2)C(C)(C)c2ccccc2-3)cc1
photoluminescence quantum yield (in CCOC(C)=O): 0.99

SMILES: CC(C)(C)c1ccc2c(c1)sc1[n+]2[B-](F)(F)n2c(c3cccc4cccc2c43)=C1C#N
photoluminescence quantum yield (in C1CCOC1): 0.67
photoluminescence quantum yield (in CC#N): 0.74
photoluminescence quantum yield (in CCCCCC): 0.68
photoluminescence quantum yield (in Cc1ccccc1): 0.69
photoluminescence quantum yield (in ClCCl): 0.7

SMILES: Cc1cc(-c2nnc(-c3c(C(C)C)cc(C(C)C)cc3C(C)C)o2)ccc1-n1c2ccccc2c2ccccc21
photoluminescence quantum yield (in Cc1ccccc1): 0.38

SMILES: Cn1cc(-c2nc3ccccc3nc2/C=C/N2CCCC2)c2ccccc21
photoluminescence quantum yield (in C1CCCCC1): 0.126
photoluminescence quantum yield (in C1CCOC1): 0.444
photoluminescence quantum yield (in CC#N): 0.43
photoluminescence quantum yield (in CC(C)=O): 0.456
photoluminescence quantum yield (in CCO): 0.048
photoluminescence quantum yield (in CO): 0.012
photoluminescence quantum yield (in CS(C)=O): 0.496
photoluminescence quantum yield (in Cc1ccccc1): 0.375
photoluminescence quantum yield (in ClCCl): 0.579

SMILES: CCCCCCCCCCCCOc1cc2cc(N(C)C)ccc2cc1C=O
photoluminescence quantum yield (in ClCCl): 0.93

SMILES: CCCCCCCCCCOc1cc(OCCCCCCCCCC)cc(C2=C3C(C)=CC(/C=C/c4ccc(OC)cc4)=[N+]3[B-](F)(F)n3c(/C=C/c4ccc(OC)cc4)cc(C)c32)c1
photoluminescence quantum yield (in ClC(Cl)Cl): 0.37

SMILES: Cc1cc(C)c(-c2nnc(-c3ccc(-n4c5ccccc5c5ccccc54)c(C)c3)o2)c(C)c1
photoluminescence quantum yield (in Cc1ccccc1): 0.44

SMILES: CC(C)c1cc(C(C)C)c(B2c3ccccc3Oc3cc(N4c5ccccc5C(C)(C)c5ccccc54)ccc32)c(C(C)C)c1
photoluminescence quantum yield (in Cc1ccccc1): 1

SMILES: Cc1cc2nc3[nH]c(=O)[nH]c(=O)c3nc2cc1C
photoluminescence quantum yield (in CC#N): 0.028

SMILES: CC(C)(C)c1ccc(-c2cc3c(-c4ccc(C(C)(C)C)cc4)c4cccc5c(-c6ccc(C(C)(C)C)cc6)cc6c(-c7ccc(C(C)(C)C)cc7)c7cccc2c7c3c6c54)cc1
photoluminescence quantum yield (in C1CCCCC1): 0.23
photoluminescence quantum yield (in CC#N): 0.2
photoluminescence quantum yield (in CO): 0.21
photoluminescence quantum yield (in Cc1ccccc1): 0.41
photoluminescence quantum yield (in ClCCl): 0.27
